According to PubChem BioAssay (NCI):
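How tested: cells in 96-well plates exposed to compound for 48 hours at five concentrations. Here, GI50 denotes the concentration required for 50% inhibition of growth. TGI marks complete inhibition of growth.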

Key:
Test in all cases: NCI tumour cell line growth inhibition, 48 h
[1] = tested on: HCT-116 colon
[2] = tested on: OVCAR-8 ovarian
[3] = tested on: NCI-H23 lung
[4] = tested on: HCT-15 colon
[5] = tested on: IGROV1 ovarian
[6] = tested on: SK-OV-3 ovarian
[7] = tested on: BT-549 breast
[8] = tested on: MDA-MB-435
[9] = tested on: SW-620 colon
[10] = tested on: OVCAR-3 ovarian
[11] = tested on: OVCAR-5 ovarian
[12] = tested on: DU-145 prostate
[13] = tested on: U251 CNS
[14] = tested on: SK-MEL-5 melanoma
[15] = tested on: M14 melanoma
[16] = tested on: SK-MEL-2 melanoma
[17] = tested on: PC-3 prostate
[18] = tested on: SK-MEL-28 melanoma
[19] = tested on: NCI-H460 lung
[20] = tested on: SF-539 CNS
[21] = tested on: SN12C renal
[22] = tested on: HCC-2998 colon
[23] = tested on: NCI/ADR-RES ovarian
[24] = tested on: HS 578T breast
[25] = tested on: ACHN renal
[26] = tested on: NCI-H226 lung
[27] = tested on: A549 NSCLC
[28] = tested on: SNB-75 CNS
[29] = tested on: KM12 colon
[30] = tested on: LOX IMVI melanoma
[31] = tested on: RPMI-8226 leukemia
[32] = tested on: SR leukemia
[33] = tested on: OVCAR-4 ovarian
[34] = tested on: MDA-MB-468 breast
[35] = tested on: EKVX NSCLC
[36] = tested on: HL-60(TB) leukemia
[37] = tested on: COLO 205 colon
[38] = tested on: HOP-62 NSCLC
[39] = tested on: MCF7 breast
[40] = tested on: T-47D breast
[41] = tested on: HT29 colon
[42] = tested on: 786-0 renal
[43] = tested on: SNB-19 CNS
[44] = tested on: A498 renal
[45] = tested on: SF-268 CNS
[46] = tested on: MDA-MB-231 breast
[47] = tested on: UO-31 renal
[48] = tested on: UACC-257 melanoma
[49] = tested on: NCI-H522 lung
[50] = tested on: SF-295 CNS
[51] = tested on: HOP-92 NSCLC
[52] = tested on: UACC-62 melanoma
[53] = tested on: K-562 leukemia
[54] = tested on: CAKI-1 renal
[55] = tested on: RXF 393 renal
[56] = tested on: MALME-3M melanoma
[57] = tested on: CCRF-CEM leukemia
[58] = tested on: TK-10 renal
[59] = tested on: MOLT-4 leukemia

O=C(CSc1nc2ccccc2c(=O)n1-c1ccc(Cl)cc1)Nc1ccc(-c2nc3ccccc3[nH]2)cc1
GI50 [1]: 1.91 µM | TGI [1]: 3.65 µM | GI50 [2]: 1.83 µM | TGI [2]: 3.66 µM | GI50 [3]: 2.24 µM | TGI [3]: 5.89 µM | GI50 [4]: 1.57 µM | TGI [4]: 3.77 µM | GI50 [5]: 3.04 µM | TGI [5]: 12.5 µM | GI50 [6]: 10.2 µM | TGI [6]: 21.9 µM | GI50 [7]: 5.33 µM | TGI [7]: 17.5 µM | GI50 [8]: 2.05 µM | TGI [8]: 4.53 µM | GI50 [9]: 1.84 µM | TGI [9]: 3.63 µM | GI50 [10]: 2.05 µM | TGI [10]: 4.3 µM | GI50 [11]: 3.12 µM | TGI [11]: 13.7 µM | GI50 [12]: 2.12 µM | TGI [12]: 4.76 µM | GI50 [13]: 1.84 µM | TGI [13]: 3.23 µM | GI50 [14]: 3.62 µM | TGI [14]: 12.8 µM | GI50 [15]: 2.48 µM | TGI [15]: 7.06 µM | GI50 [16]: 3.06 µM | TGI [16]: 11.9 µM | GI50 [17]: 3.01 µM | TGI [17]: 10.9 µM | GI50 [18]: 1.82 µM | TGI [18]: 3.43 µM | GI50 [19]: 1.77 µM | TGI [19]: 3.38 µM | GI50 [20]: 2.11 µM | TGI [20]: 4.89 µM | GI50 [21]: 1.73 µM | TGI [21]: 3.3 µM | GI50 [22]: 3.12 µM | TGI [22]: 11.6 µM | GI50 [23]: 2.49 µM | TGI [23]: 7.35 µM | GI50 [24]: 2.12 µM | TGI [24]: 4.82 µM | GI50 [25]: 3.28 µM | TGI [25]: 10.7 µM | GI50 [26]: 9 µM | TGI [26]: 22.5 µM | GI50 [27]: 1.57 µM | TGI [27]: 3.01 µM | GI50 [28]: 1.71 µM | TGI [28]: 6.04 µM | GI50 [29]: 10.9 µM | TGI [29]: 40 µM | GI50 [30]: 1.55 µM | TGI [30]: 2.89 µM | GI50 [31]: 2.78 µM | TGI [31]: 10.1 µM | GI50 [32]: 1.42 µM | TGI [32]: 7.77 µM | GI50 [33]: 1.88 µM | TGI [33]: 3.94 µM | GI50 [34]: 1.9 µM | TGI [34]: 4.7 µM | GI50 [35]: 3.95 µM | TGI [35]: 14.8 µM | GI50 [36]: 6.92 µM | TGI [36]: 21.7 µM | GI50 [37]: 2.52 µM | TGI [37]: 8.14 µM | GI50 [38]: 2 µM | TGI [38]: 4.11 µM | GI50 [39]: 1.31 µM | TGI [39]: 2.85 µM | GI50 [40]: 1.78 µM | TGI [40]: 3.56 µM | GI50 [41]: 2.1 µM | TGI [41]: 4.46 µM | GI50 [42]: 1.88 µM | TGI [42]: 3.69 µM | GI50 [43]: 2.22 µM | TGI [43]: 5.28 µM | GI50 [44]: 15.9 µM | TGI [44]: 29.3 µM | GI50 [45]: 3.67 µM | TGI [45]: 15.7 µM | GI50 [46]: 1.91 µM | TGI [46]: 3.86 µM | GI50 [47]: 2.03 µM | TGI [47]: 5.4 µM | GI50 [48]: 1.94 µM | TGI [48]: 4.55 µM | GI50 [49]: 1.95 µM | TGI [49]: 4.54 µM | GI50 [50]: 3.3 µM | TGI [50]: 11.8 µM | GI50 [51]: 1.66 µM | TGI [51]: 5.33 µM | GI50 [52]: 1.99 µM | TGI [52]: 4.59 µM | GI50 [53]: 3.02 µM | TGI [53]: 11.5 µM | GI50 [54]: 4.51 µM | TGI [54]: 15.6 µM | GI50 [55]: 2.09 µM | TGI [55]: 5.31 µM | GI50 [56]: 1.96 µM | TGI [56]: 4.47 µM | GI50 [57]: 4.39 µM | TGI [57]: 19.5 µM | GI50 [58]: 1.85 µM | TGI [58]: 3.64 µM | GI50 [59]: 3.47 µM | TGI [59]: 18.1 µM

COc1ccc(C(=O)/C=C/c2cc(F)cc(C(F)(F)F)c2)cc1S(N)(=O)=O
GI50 [1]: 1.58 µM | TGI [1]: 3.39 µM | GI50 [2]: 3.21 µM | TGI [2]: 11.4 µM | GI50 [3]: 2.23 µM | TGI [3]: 5.48 µM | GI50 [4]: 1.59 µM | TGI [4]: 3.39 µM | GI50 [5]: 3.15 µM | TGI [5]: 11.6 µM | GI50 [6]: 15.7 µM | TGI [6]: 31.8 µM | GI50 [7]: 6.4 µM | TGI [7]: 19.5 µM | GI50 [8]: 2.02 µM | TGI [8]: 4.91 µM | GI50 [9]: 1.81 µM | TGI [9]: 3.55 µM | GI50 [10]: 3.62 µM | TGI [10]: 11.9 µM | GI50 [11]: 7.88 µM | TGI [11]: 20.6 µM | GI50 [12]: 12 µM | TGI [12]: 25 µM | GI50 [13]: 1.75 µM | TGI [13]: 3.79 µM | GI50 [14]: 5.52 µM | TGI [14]: 17.9 µM | GI50 [15]: 3.14 µM | TGI [15]: 11.2 µM | GI50 [16]: 15.5 µM | TGI [16]: 31.2 µM | GI50 [17]: 2.48 µM | TGI [17]: 7.3 µM | GI50 [18]: 2.63 µM | TGI [18]: 7.2 µM | GI50 [19]: 3.41 µM | TGI [19]: 11.8 µM | GI50 [20]: 1.73 µM | TGI [20]: 3.17 µM | GI50 [21]: 1.88 µM | TGI [21]: 4.59 µM | GI50 [22]: 1.98 µM | TGI [22]: 3.71 µM | GI50 [23]: 2.16 µM | TGI [23]: 5.44 µM | GI50 [24]: 15.9 µM | TGI [24]: 54.9 µM | GI50 [25]: 1.72 µM | TGI [25]: 3.28 µM | GI50 [26]: 8.55 µM | TGI [26]: 23.6 µM | GI50 [27]: 4.3 µM | TGI [27]: 23.1 µM | GI50 [28]: 2.45 µM | TGI [28]: 13.2 µM | GI50 [29]: 1.96 µM | TGI [29]: 4.08 µM | GI50 [30]: 1.42 µM | TGI [30]: 2.72 µM | GI50 [31]: 2.13 µM | TGI [31]: 7.47 µM | GI50 [33]: 5.86 µM | TGI [33]: 18.7 µM | GI50 [34]: 1.66 µM | TGI [34]: 3.34 µM | GI50 [35]: 5.07 µM | TGI [35]: 18.3 µM | GI50 [36]: 2.33 µM | TGI [36]: 8.4 µM | GI50 [37]: 3.79 µM | TGI [37]: 13.2 µM | GI50 [38]: 7.34 µM | TGI [38]: 22.2 µM | GI50 [39]: 1.69 µM | TGI [39]: 4.42 µM | GI50 [40]: 11 µM | TGI [40]: 25.8 µM | GI50 [42]: 1.84 µM | TGI [42]: 3.79 µM | GI50 [43]: 3.07 µM | TGI [43]: 11.3 µM | GI50 [44]: 13.9 µM | TGI [44]: 26.8 µM | GI50 [45]: 12 µM | TGI [45]: 43.3 µM | GI50 [46]: 2.06 µM | TGI [46]: 4.81 µM | GI50 [47]: 1.94 µM | TGI [47]: 5.1 µM | GI50 [48]: 11.3 µM | TGI [48]: 25.8 µM | GI50 [49]: 1.9 µM | TGI [49]: 3.98 µM | GI50 [50]: 3.62 µM | TGI [50]: 13.4 µM | GI50 [51]: 6.32 µM | TGI [51]: 21.4 µM | GI50 [52]: 3.28 µM | TGI [52]: 13.6 µM | GI50 [53]: 2.05 µM | TGI [53]: > 100 µM | GI50 [54]: 4.65 µM | TGI [54]: 17.7 µM | GI50 [55]: 3.97 µM | TGI [55]: 16.1 µM | GI50 [56]: 12.1 µM | TGI [56]: 24.7 µM | GI50 [57]: 1.5 µM | TGI [57]: 6.79 µM | GI50 [58]: 4.69 µM | TGI [58]: 18.5 µM | GI50 [59]: 2.44 µM | TGI [59]: 9.1 µM
